Results taken from US4241066A, “14-Amino derivatives of morphine, methods of making them and analgesic compositions containing them” (priority 1977, dated 1980).

Tests used:
[1] = test system: opiate receptor; experiment: in vivo agonist test in the rat, tail pressure as nociceptive stimulus (Green and Young); conditions: administered subcutaneously
Method: The compounds have been screened for agonist activity in the rat using tail pressure as the nociceptive stimulus as described by Green, H. F., and Young, P. A., Br. J. Pharmac. Chemother., 6, 572 (1951) and for morphine antagonist activity in rat using a tail flick test modified from the method described for mice by Ben Bassat et al (Arch Int. Pharmacoldyn. 122, 434 [1959]). The nociceptive stimulus in this test is a hot water bath (55° C.).

[2] = target: T1, opiate receptor (Rattus norvegicus, UniProt P33535); type: in vivo; conditions: tail flick, hot water bath 55° C., administered subcutaneously
T1 construct: from tissue; host or cells: living rat (whole animal, subcutaneous dosing)
T1 sequence (P33535 whole entry): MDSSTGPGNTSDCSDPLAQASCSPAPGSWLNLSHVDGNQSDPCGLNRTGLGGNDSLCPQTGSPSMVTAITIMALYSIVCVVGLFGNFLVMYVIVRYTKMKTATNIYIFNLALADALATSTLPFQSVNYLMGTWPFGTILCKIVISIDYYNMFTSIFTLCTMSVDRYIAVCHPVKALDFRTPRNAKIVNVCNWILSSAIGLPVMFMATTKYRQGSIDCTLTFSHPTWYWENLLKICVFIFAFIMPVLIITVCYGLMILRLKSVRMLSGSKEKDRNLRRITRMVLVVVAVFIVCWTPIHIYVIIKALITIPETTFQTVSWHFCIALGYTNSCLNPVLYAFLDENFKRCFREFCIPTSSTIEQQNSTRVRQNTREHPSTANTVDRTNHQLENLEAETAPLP
Method: Chemother., 6, 572 (1951) and for morphine antagonist activity in rat using a tail flick test modified from the method described for mice by Ben Bassat et al (Arch Int. Pharmacoldyn. 122, 434 [1959]). The nociceptive stimulus in this test is a hot water bath (55° C.).

## CCCCCCN[C@@]12C=CC(=O)[C@@H]3Oc4c(OC)ccc5c4[C@@]31CCN(CC1CC1)[C@@H]2C5 [Example 38]
[1]
  ED50 (agonist, antinociceptive): 1.92 mg/kg

## O=C1C=C[C@@]2(NCC3CC3)[C@H]3Cc4ccc(O)c5c4[C@@]2(CCN3CC2CC2)[C@H]1O5 [Example 48]
[2]
  AD50 (morphine antagonist): 0.0027 mg/kg

## O=CN[C@@]12C=CC(=O)[C@@H]3Oc4c(O)ccc5c4[C@@]31CCN(CC1CC1)[C@@H]2C5 [Example 49]
[2]
  AD50 (morphine antagonist): 0.132 mg/kg

## CCCCCC(=O)N[C@@]12C=CC(=O)[C@@H]3Oc4c(O)ccc5c4[C@@]31CCN(CC1CC1)[C@@H]2C5 [Example 54]
[1]
  ED50 (agonist, antinociceptive): 0.0036 mg/kg

## CN1CC[C@]23c4c5ccc(O)c4O[C@H]2[C@@H](O)C=C[C@H]3[C@H]1C5 [morphine]
[1]
  ED50 (agonist, antinociceptive): 0.66 mg/kg
